Results: patent US20070259837A1, “Use of Non-Glucocorticoid Steroids for the Treatment of Muscular Dystrophy” (SANTHERA PHARMACEUTICALS (SCHWEIZ) AG, priority 2004, published 2007)
Where two headings read alike, the source gives them in different places.

What was measured:
[1] = system: utrophin protein in human muscle cells derived from DMD patients; assay: Cell-based ELISA for normalized utrophin protein level in primary human myotube cultures; conditions: for % UTR vs. PDN (normalized utrophin protein as % of PDN-treated sister cultures): same experiment; for activity at 0.5 µM: Myotube, read-out: % UTR vs. DMSO (normalized utrophin protein over DMSO-solvent treated control)
Method: The method used to detect and determine utrophin-inducing activity of non-glucocorticoid steroids has been described previously (Courdier-Fruh, I., Barman, L., Briguet, A. & Meier, T.; 2002, Neuromuscul. Disord.; 12 Suppl:S95). Briefly, primary human muscle cell cultures were prepared according to standard protocols (Askanas V, Kwan H, Alvarez R B, Engel W K, Kobayashi T, Martinuzzi A, Hawkins E F., 1987, J Neurocytol., 16:523-537). Test compounds and the glucocorticoid 6α-methylprednisolone-21 sodium succinate (Pharmacia & Upjohn; Solu-Medrol®, PDN) as reference compound were applied at 500 nM final concentration as soon as myoblasts started to differentiate into myotubes. Incubation with the test compound was ended as soon as well differentiated myotubes have formed, typically resulting in an incubation time with a test compound for 3-7 days.
Normalized concentrations of utrophin protein in human muscle cells cultured in microtiter plates were determined by a cell-based enzyme-linked immunosorbent assay (ELISA) procedure that allows a successive readout for the cell density and utrophin protein level. For calibration, the cell density and differentiation was determined by absorbance measurements of the total dehydrogenase enzyme activity in each well using the colorimetric CellTiter 96®AQ One Solution Reagent Proliferation Assay (Promega) according to the manufacturer's recommendation. Subsequently, cells were fixed, washed, permeabilized with 0.5% (v/v) Triton X-100 and unspecific antibody binding-sites were blocked by standard procedures. Utrophin protein levels were determined immunologically with utrophin-specific primary antibodies (mouse monoclonal antibody to the amino terminal portion of utrophin, NCL-DRP2, Novocastra Laboratories) and with appropriate peroxidase-coupled secondary antibodies using QuantaBlu™ Fluorogenic Peroxidase Substrate Kit (Pierce) for detection. Fluorescence measurements were carried out with a multilabel counter (Wallac) at λex=325 nm and at λem=420 nm. The primary readout of this signal is presented in arbitrary units. For calibration, the arbitrary units representing the relative utrophin protein content of each well were divided by the corresponding cell-titer absorbance value to correct for cell density. For comparison between experiments, the cell-titer corrected readout for utrophin protein content in each well was expressed in percent of solvent treated control cultures (set to 100%). PDN was included in all experiments as reference glucocorticoid, N=3-5 for each compound tested.
Non-glucocorticoid test compounds, applied in a concentration of 500 nM, were regarded as “positive” in case the increase in the level of utrophin protein was at least 20% (mean value) over control cultures treated with the appropriate dilution of DMSO solvent as control and containing no test compound.
A range of different pharmaceutical compounds were tested for their ability to increase levels of utrophin protein in primary human myotube cultures. The cell-based ELISA protocol used to detect the level of utrophin protein is provided above and described in Courdier-Fruh, I., Barman, L., Briguet, A. & Meier, T, 2002, Neuromuscul. Disord.: 12, Suppl:S95. Briefly, fixed and permeabilized human muscle cells derived from DMD patients and cultured in 96-well cell culture plates were incubated with antibodies specific for utrophin at a dilution of 1:1'000 in blocking solution (phosphate buffered saline (PBS) supplemented with 2% fetal calf serum and 1% bovine serum albumin) for 10-15 hours at 4° C. Following several washing steps with 0.1% Triton X-100 in PBS, peroxidase-coupled secondary antibodies diluted 1:3'000 in blocking solution were applied in each well for 1-2 hours at room temperature. Signal detection, data acquisition and normalization was performed as described above and in Courdier-Fruh, I., Barman, L., Briguet, A. & Meier, T, 2002, Neuromuscul. Disord.: 12, Suppl:S95. […]

[2] = system: utrophin protein in human muscle cells derived from DMD patients; conditions: cited from earlier work; for increase of utrophin protein content in human muscle cells (reported for glucocorticoids): Courdier-Fruh et al. 2002
[3] = 500 nM compound, human muscle cultures, mean value, N=3-6

## C[C@H]1C[C@@H]2[C@H]([C@@H](O)C[C@@]3(C)[C@H]2CC[C@]3(O)C(=O)COC(=O)CCC(=O)[O-])[C@@]2(C)C=CC(=O)C=C12.[Na+] [PDN, 6α-methylprednisolone-21 sodium succinate, reference compound]
[1]; human DMD-patient derived muscle cells, 500 nM, FIG. 1 / FIG. 2, N=5-6
  utrophin protein levels normalized to cell density (UTR, relative units) compared to solvent-treated control (DMSO): up to 200%
[2]; simultaneous exposure to RU38468, previous experiments (Courdier-Fruh 2002)
  inhibition of PDN-mediated utrophin increase by RU38486: could be inhibited

## C[C@@H]1C[C@H]2[C@@H]3CCC4=CC(=O)C=C[C@]4(C)[C@@]3(F)[C@@H](O)C[C@]2(C)[C@@]1(O)C(=O)CO [dexametasone]
[2]
  increase of utrophin protein content in human muscle cells (reported for glucocorticoids): increase of utrophin protein content

## CC1(C)O[C@@H]2C[C@H]3[C@@H]4C[C@H](F)C5=CC(=O)C=C[C@]5(C)[C@@]4(F)[C@@H](O)C[C@]3(C)[C@]2(C(=O)CO)O1 [fluocinolone acetonide]
[2]
  increase of utrophin protein content in human muscle cells (reported for glucocorticoids): increase of utrophin protein content

## CC1(C)O[C@@H]2C[C@H]3[C@@H]4CCC5=CC(=O)CC[C@]5(C)[C@@]4(F)[C@@H](O)C[C@]3(C)[C@]2(C(=O)CCl)O1 [halcinonide]
[2]
  increase of utrophin protein content in human muscle cells (reported for glucocorticoids): increase of utrophin protein content

## CC(=O)O[C@@H]1C[C@]2(C)C(C3=CC(=O)OC3)CC[C@]2(O)C2CC[C@@H]3C[C@@H](O)CC[C@]3(C)C21 (some centres unmarked) [Example 83]
[1]; [3]
  % UTR vs. PDN (normalized utrophin protein as % of PDN-treated sister cultures): 99%
[1]; Homo sapiens
  activity at 0.5 µM: 121%

## C[C@]12CCC3c4ccc(OC(=O)c5ccccc5)cc4CCC3C1CC[C@@H]2O (some centres unmarked) [Example 73]
[1]; [3]
  % UTR vs. PDN (normalized utrophin protein as % of PDN-treated sister cultures): 105%
  activity at 0.5 µM: 132%

## CCOC(=O)[C@H]1CCC2C3CC=C4C[C@@H](OC(=O)c5ccccc5)CC[C@]4(C)C3CC[C@@]21C (some centres unmarked) [Example 17]
[1]; [3]
  % UTR vs. PDN (normalized utrophin protein as % of PDN-treated sister cultures): 103%
[1]; Homo sapiens
  activity at 0.5 µM: 120%

## CC(=O)OCC(=O)[C@@]12O[C@@H]1CC1C3CC[C@@H]4C[C@H](O)CC[C@]4(C)C3CC[C@@]12C (some centres unmarked) [Example 68]
[1]; [3]
  % UTR vs. PDN (normalized utrophin protein as % of PDN-treated sister cultures): 95%
[1]; Homo sapiens
  activity at 0.5 µM: 125%

## C[C@]12CC(=O)C3C(CC[C@@H]4C[C@H](O)CC[C@]34C)C1CC[C@]2(O)C1(CO)OCCO1 (some centres unmarked) [Example 70]
[1]; [3]
  % UTR vs. PDN (normalized utrophin protein as % of PDN-treated sister cultures): 94%
[1]; Homo sapiens
  activity at 0.5 µM: 122%

## CC(=O)OCC(=O)[C@@]1(O)CCC2C3CCC4=CC(=O)CC[C@]4(C)C3CC[C@@]21C (some centres unmarked) [Example 63, Cortexolone 21-acetate]
[1]; [3]
  % UTR vs. PDN (normalized utrophin protein as % of PDN-treated sister cultures): 99%
[1]; Homo sapiens
  activity at 0.5 µM: 129%

## CC(C)CCCC(C)[C@H]1CCC2C3=CC[C@H]4C[C@@H](O)CC[C@]4(C)C3CC[C@@]21C (some centres unmarked) [Example 33]
[1]; [3]
  % UTR vs. PDN (normalized utrophin protein as % of PDN-treated sister cultures): 99%
[1]; Homo sapiens
  activity at 0.5 µM: 125%

## C[C@H]1C[C@@H]2[C@H]([C@@H](O)C[C@@]3(C)[C@H]2CC[C@]3(O)C(=O)CO)[C@@]2(C)C=CC(=O)C=C12 [α-methylprednisolone]
[2]
  increase of utrophin protein content in human muscle cells (reported for glucocorticoids): increase of utrophin protein content

## C[C@@]12C=CCC1C1CC[C@H]3C[C@H](O)CC[C@]3(C)C1CC2 (some centres unmarked) [Example 47]
[1]; [3]
  % UTR vs. PDN (normalized utrophin protein as % of PDN-treated sister cultures): 98%
[1]; Homo sapiens
  activity at 0.5 µM: 127%

## CC(=O)[C@@]1(O)CCC2C3CCC4=CC(=O)CC[C@]4(C)C3CC[C@@]21C (some centres unmarked) [Example 66]
[1]; [3]
  % UTR vs. PDN (normalized utrophin protein as % of PDN-treated sister cultures): 97%
  activity at 0.5 µM: 127%

## CC(=O)O[C@H]1CCC2C3CCc4cc(O)ccc4C3CC[C@@]21C (some centres unmarked) [Example 77]
[1]; [3]
  % UTR vs. PDN (normalized utrophin protein as % of PDN-treated sister cultures): 102%
[1]; Homo sapiens
  activity at 0.5 µM: 128%

## CC(=O)[C@@]12O[C@@H]1CC1C3CC(C)=C4C[C@@H](O)CC[C@]4(C)C3CC[C@@]12C (some centres unmarked) [Example 61]
[1]; [3]
  % UTR vs. PDN (normalized utrophin protein as % of PDN-treated sister cultures): 100%
[1]; Homo sapiens
  activity at 0.5 µM: 130%

## CC1CC[C@@]2(OC1)O[C@H]1C[C@H]3[C@@H]4CC[C@H]5C[C@@H](O)CC[C@]5(C)C4CC[C@]3(C)C1[C@@H]2C (some centres unmarked) [Example 29]
[1]; [3]
  % UTR vs. PDN (normalized utrophin protein as % of PDN-treated sister cultures): 91%
[1]; Homo sapiens
  activity at 0.5 µM: 120%

## C[C@]12CCC3C(CC[C@H]4C[C@@H](OC(=O)c5ccccc5)CC[C@]34C)C1CC[C@@H]2OC(=O)c1ccccc1 (some centres unmarked) [Example 38]
[1]; [3]
  % UTR vs. PDN (normalized utrophin protein as % of PDN-treated sister cultures): 108%
[1]; Homo sapiens
  activity at 0.5 µM: 126%

## CC(=O)O[C@H]1CC[C@]2(C)C3=CC[C@]4(C)C(C(C)=O)=CCC4C3CC[C@H]2C1 (some centres unmarked) [Example 55]
[1]; [3]
  % UTR vs. PDN (normalized utrophin protein as % of PDN-treated sister cultures): 107%
[1]; Homo sapiens
  activity at 0.5 µM: 125%

## CC(=O)O[C@@H]1CC[C@]2(C)C3C[C@H](OC(C)=O)[C@]4(C)C(C(C)CCC(=O)O)CCC4C3CC[C@@H]2C1 (some centres unmarked) [Example 3]
[1]; [3]
  % UTR vs. PDN (normalized utrophin protein as % of PDN-treated sister cultures): 122%
[1]; Homo sapiens
  activity at 0.5 µM: 144%

## CC(=O)[C@H]1CCC2C3CCC4=CC(=O)CC[C@]4(C)C3[C@H](OC(=O)c3ccccc3)C[C@@]21C (some centres unmarked) [Example 57]
[1]; [3]
  % UTR vs. PDN (normalized utrophin protein as % of PDN-treated sister cultures): 104%
[1]; Homo sapiens
  activity at 0.5 µM: 120%
